According to patent US10064848B2, “Pyridic ketone derivatives, method of preparing same, and pharmaceutical application thereof” (Shanghai Hengrui Pharmaceutical Co., Ltd., priority 2013, dated 2018):

Columns and labels:
[1] = biological target: T1, MEK1 (Recombinant Human Protein) (Homo sapiens, UniProt Q02750); experiment: MEK1 kinase inhibition assay (Z'-LYTE Kinase Assay Kit-Ser/Thr 03 Peptide); assay type: biochemical; details: 4 hours at 37° C, read-out: IC50 for inhibiting MEK kinase (MEK1)
T1 construct: purchased Invitrogen PV3093
Experimental: MEK1 kinase activity was tested in vitro by the following method.
MEK kinase used in the assay: MEK1 (Recombinant Human Protein, Invitrogen, Catalog No. PV3093).
Kit used in the assay: Z′-LYTE™ Kinase Assay Kit-Ser/Thr 03 Peptide (Invitrogen, Catalog No. PV3176).
The following in vitro assay was used to determine the activity of the compounds of the present invention for inhibiting the […] MEK kinase. The test compound was dissolved in dimethyl sulfoxide to the desired concentration. 1× Buffer A (Invitrogen, Catalog No. PV3189) was prepared, ATP was diluted with 1× Buffer A to obtain 400 μM ATP solution, appropriate amounts of Z′-LYTE™ Ser/Thr 03 Peptide (Invitrogen, Catalog No. PV3200), MEK kinase (MEK1) Enzymes and 1× Buffer A were mixed, and appropriate amounts of Z′-LYTE™ Ser/Thr 03 phosphoPeptide substrate (Invitrogen, Catalog No. PV3215) and 1× Buffer A were formulated into a mixture to be tested. The 4% DMSO solution of the test compound was prepared from 1× buffer and DMSO solution of the test compound. 2.5 μL DMSO solution of the test compound was added to a reaction well, and then 1× Buffer A, 2.5 μL of 400 μM ATP solution, 5 μL of enzyme and substrate mixture were added to become a 10 μL of reaction system. The reaction system was incubated for 4 hours at 37° C., and a mixture was prepared according to Reagent A:Buffer B=1:1024. 5 μL of a mixture of Reagent A (Invitrogen, Catalog No. PV3295) and Buffer B (Invitrogen, Catalog No. P3127) was added to a reaction well, the reaction system was incubated for 60 minutes at 25° C. The fluorescence was read by a NovoStar ELISA with excitation wavelength: 400 nm, and emission wavelength: 445 nm and 520 nm.
The activity of the compounds of the present invention: The above assay was used to determine the biochemical activity of the compounds of the present invention for inhibiting MEK kinase (MEK1).

Colo205 cell = experiment: Proliferation inhibition on Colo205 (CCK8); assay type: cell-based; details: Homo sapiens, COLO 205, Colo205, 72 hours
Description: Cell line used in the assay: Colo205 (Cell Bank of the Chinese Academy of Sciences, Catalog No. TCHu102).
The following in vitro cell assay is to determine the activity of the compounds of the present invention for inhibiting the proliferation of human colon cancer cell, and the activity is expressed as IC50. General programs of this kind of assay were as follows: First, the cell line to be tested (purchased from Cell Bank of the Chinese Academy of Sciences) was inoculated in a 96-well culture plate with a suitable cell concentration of 4000 cells/mL medium, and was cultured in a carbon dioxide incubator at 37° C., then grown overnight. The medium was replaced by new medium added with a series of concentrations (10000 nM, 1000 nM, 100 nM, 10 nM, 1 nM, 0.1 nM) of the test compound solutions. The plates were placed back in the incubator, and continuously cultured for 72 hours. After 72 hours, CCK8 (Cell Counting Kit-8, Catalog No.: CK04, purchased from colleagues chemical company) method was used to determine the proliferation inhibition activity of the test compounds. IC50 values were calculated from the inhibition data of the test compounds at a series of different concentrations.
The above assay was used to determine the biochemical activity of the compounds of the present invention.

T1 sequence (Q02750 whole entry): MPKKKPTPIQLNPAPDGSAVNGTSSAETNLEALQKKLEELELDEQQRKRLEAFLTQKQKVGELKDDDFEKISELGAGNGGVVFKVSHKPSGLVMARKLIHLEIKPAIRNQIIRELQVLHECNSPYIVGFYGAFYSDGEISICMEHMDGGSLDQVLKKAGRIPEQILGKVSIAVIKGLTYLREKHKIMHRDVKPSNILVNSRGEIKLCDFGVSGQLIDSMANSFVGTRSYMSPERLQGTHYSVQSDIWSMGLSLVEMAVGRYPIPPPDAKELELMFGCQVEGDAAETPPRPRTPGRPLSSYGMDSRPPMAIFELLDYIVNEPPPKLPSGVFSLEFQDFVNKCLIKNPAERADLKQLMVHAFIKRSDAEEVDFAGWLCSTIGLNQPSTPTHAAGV

| IC50 [1] | IC50 (Colo205 cell) | Structure (SMILES) |
| --- | --- | --- |
| 26 nM | – | Cc1c(F)cccc1Oc1cc(=O)n(C)c(Nc2ccc(I)cc2F)c1C(=O)NC[C@H](O)CO [Example 28, (S)-N-(2,3-dihydroxypropyl)-4-(3-fluoro-2-methylphenoxy)-2-((2-fluoro-4-iodophenyl)amino)-1-methyl-6-oxo-1,6-dihydropyridine-3-carboxamide] |
| 28.3 nM | – | Cc1c(F)cccc1Oc1cc(=O)n(C)c(Nc2ccc(I)cc2F)c1C(=O)NC[C@@H](O)CO [Example 27, (R)-N-(2,3-dihydroxypropyl)-4-(3-fluoro-2-methylphenoxy)-2-((2-fluoro-4-iodophenyl)amino)-1-methyl-6-oxo-1,6-dihydropyridine-3-carboxamide] |
| 7.3 nM | – | Cc1ccncc1Oc1cc(=O)n(C)c(Nc2ccc(I)cc2F)c1C(N)=O [Example 33, 2-((2-fluoro-4-iodophenyl)amino)-1-methyl-4-((4-methylpyridin-3-yl)oxy)-6-oxo-1,6-dihydropyridine-3-carboxamide] |
| 3.9 nM | – | Cc1c(F)cccc1Oc1c(C(N)=O)c(Nc2ccc(I)cc2F)n(C)c(=O)c1F [Example 26, 5-fluoro-4-(3-fluoro-2-methylphenoxy)-2-((2-fluoro-4-iodophenyl)amino)-1-methyl-6-oxo-1,6-dihydropyridine-3-carboxamide] |

Further lines, the molecule ahead of its results:

| Structure (SMILES) | IC50 [1] | IC50 (Colo205 cell) |
| --- | --- | --- |
| CCS(=O)(=O)Nc1cccc(Oc2cc(=O)n(C)c(Nc3ccc(I)cc3F)c2C(=O)NC)c1C [Example 2, N,1-dimethyl-4-(3-(ethylsulfonamido)-2-methylphenoxy)-2-((2-fluoro-4-iodophenyl)amino)-6-oxo-1,6-dihydropyridine-3-carboxamide] | 19 nM | 4.7 nM |
| Cc1ccc(F)cc1Oc1cc(=O)n(C)c(Nc2ccc(I)cc2F)c1C(N)=O [Example 25, 4-(5-fluoro-2-methylphenoxy)-2-((2-fluoro-4-iodophenyl)amino)-1-methyl-6-oxo-1,6-dihydropyridine-3-carboxamide] | 5.9 nM | 1 nM |
| Cc1cccc(Oc2cc(=O)n(C)c(Nc3ccc(I)cc3F)c2C(N)=O)c1F [Example 19, 4-(2-fluoro-3-methylphenoxy)-2-((2-fluoro-4-iodophenyl)amino)-1-methyl-6-oxo-1,6-dihydropyridine-3-carboxamide] | 5.8 nM | 0.8 nM |
| Cc1ccc(Oc2cc(=O)n(C)c(Nc3ccc(I)cc3F)c2C(N)=O)c(F)c1 [Example 17, 4-(2-fluoro-4-methylphenoxy)-2-((2-fluoro-4-iodophenyl)amino)-1-methyl-6-oxo-1,6-dihydropyridine-3-carboxamide] | 8.4 nM | 2 nM |
| CNC(=O)c1cccc(Oc2cc(=O)n(C)c(Nc3ccc(I)cc3F)c2C(N)=O)c1C [Example 10, 4-(2-methyl-3-(methylcarbamoyl)phenoxy)-2-((2-fluoro-4-iodophenyl)amino)-1-methyl-6-oxo-1,6-dihydropyridine-3-carboxamide] | 6.3 nM | 4.3 nM |
| Cc1c(Cl)cccc1Oc1cc(=O)n(C)c(Nc2ccc(I)cc2F)c1C(N)=O [Example 14, 4-(3-chloro-2-methylphenoxy)-2-((2-fluoro-4-iodophenyl)amino)-1-methyl-6-oxo-1,6-dihydropyridine-3-carboxamide] | 6.2 nM | 4.2 nM |
| CCS(=O)(=O)Nc1cccc(Oc2c(C(N)=O)c(Nc3ccc(I)cc3F)n(C)c(=O)c2Cl)c1C [Example 5, 4-(3-(ethylsulfonamido)-2-methylphenoxy)-2-((2-fluoro-4-iodophenyl)amino)-1-methyl-5-chloro-6-oxo-1,6-dihydropyridine-3-carboxamide] | 4 nM | – |
| CCS(=O)(=O)Nc1cccc(Oc2c(C(N)=O)c(Nc3ccc(I)cc3F)n(C)c(=O)c2F)c1C [Example 6, 4-(3-(ethylsulfonamido)-2-methylphenoxy)-2-((2-fluoro-4-iodophenyl)amino)-1-methyl-5-fluoro-6-oxo-1,6-dihydropyridine-3-carboxamide] | 3.4 nM | – |
